Values quoted from earlier work, collected in patent US20260263483A1, “LOW DOSE THERAPEUTIC SUPPLEMENT TO MODULATE CYTOKINES” (VIRBAC CORPORATION, priority 2023, published 2026).
Read-outs that look alike come from different tables or passages of the source. Blank lines part the entries; values can stand above or below the molecule they belong to.

How the values were obtained:
[1] = test system: hepatic stellate cells (HSCs)
[2] = test system: silicotic rats
[3] = test system: diabetic rats; settings: 60 mg/kg p.o., five weeks
[4] = target: TGF-β1; settings: Balb/c 3T3 cells
[5] = rats, administrated orally
[6] = test system: Wistar albino rats; settings: gentamicin-induced renal damage, oral 2, 5 and 10 mg/kg in 14% DMSO
[7] = test system: diabetic rats

Structure (SMILES): C=C(C)[C@@H]1CC[C@]2(CO)CC[C@]3(C)[C@H](CC[C@@H]4[C@@]5(C)CC[C@H](O)C(C)(C)[C@@H]5CC[C@]43C)[C@@H]12 [betulin]
- ethanol-induced activation of hepatic stellate cells [1]: inhibited

Structure (SMILES): CC1(C)CC[C@]2(C(=O)O)CC[C@]3(C)C(=CC[C@@H]4[C@@]5(C)CC[C@H](O)C(C)(C)[C@@H]5CC[C@]43C)[C@@H]2C1 [oleanolic acid]
- expression of cytokines and collagen [2]: decrease the expression of cytokines and collagen
- kidney function [3]: ameliorates kidney function

- concentration that inhibits the specific binding of TGF-β 1 by 50% [4]: 3.0 µg/mL
- ingested ursolic acid recovered in plasma [5]: about 0.6%
Structure (SMILES): C[C@H]1[C@H](C)CC[C@]2(C(=O)O)CC[C@]3(C)C(=CC[C@@H]4[C@@]5(C)CC[C@H](O)C(C)(C)C5CC[C@]43C)[C@H]12 (some centres unmarked) [ursolic acid]
- reno-protective effect [6]: reno-protective effect
- protective effects on diabetic rats ([7]; high-dose, 50 mg/kg): significant protective effects
- protective effects on diabetic rats ([7]; low-dose, 25 mg/kg): significant protective effects
